According to patent publication US6737383B1, “Herbicidal oxadiazolidines” (priority 1999, dated 2004):

Experiments:
bamyardgrass = assay: Test B flood test barnyardgrass; format: in vivo, Echinochloa crus-galli
Summary of the method: (§1)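 Flood test on plants grown to the 2-leaf stage; treated plants kept in greenhouse twelve to sixteen days, then visually rated against controls on a 0 (no effect) to 10 (complete control) scale.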

smallflower flatsedge = assay: Test B flood test smallflower flatsedge; format: in vivo, Cyperus difformis
Summary of the method: as §1

cocklebur = assay: Test B pre/postemergence cocklebur; format: in vivo, Xanthium strumarium
Summary of the method: (§2)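 Response is a visual 0-to-10 score relative to untreated plants, where 0 means no effect and 10 means complete control, taken twelve to sixteen days after application. Treatments went onto soil at planting and onto foliage of 1- to 4-leaf plants, using a surfactant-containing non-phytotoxic solvent.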

velvetleaf = assay: Test B pre/postemergence velvetleaf; format: in vivo, Abutilon theophrasti; conditions: for Plant response rating, Velvetleaf: scale of 0 to 10 where 0 is no effect and 10 is complete control
Summary of the method: as §2

corn = assay: Test B pre/postemergence corn; format: in vivo, Zea mays
Summary of the method: as §2

wheat = assay: Test B pre/postemergence wheat; format: in vivo, Triticum aestivum; conditions: for Plant response rating, Wheat: scale of 0 to 10 where 0 is no effect and 10 is complete control
Summary of the method: as §2

blackgrass = assay: Test B pre/postemergence blackgrass; format: in vivo, Alopecurus myosuroides
Summary of the method: as §2

soybean = assay: Test B pre/postemergence soybean; format: in vivo, Glycine max; conditions: for Plant response rating, Soybean: scale of 0 to 10 where 0 is no effect and 10 is complete control
Summary of the method: as §2

duck salad = assay: Test B flood test duck salad; format: in vivo, Heteranthera limosa
Summary of the method: as §1

crabgrass = assay: Test B pre/postemergence crabgrass; format: in vivo, Digitaria sanguinalis
Summary of the method: as §2

sugar beet = assay: Test B pre/postemergence sugar beet; format: in vivo, Beta vulgaris; conditions: for Plant response rating, Sugarbeets: scale of 0 to 10 where 0 is no effect and 10 is complete control
Summary of the method: as §2

surinam grass = assay: Test B pre/postemergence surinam grass; format: in vivo, Brachiaria decumbens
Summary of the method: as §2

rice = assay: Test B flood test rice; format: in vivo, Oryza sativa
Summary of the method: as §1

wild oat = assay: Test B pre/postemergence wild oat; format: in vivo, Avena fatua; conditions: for Plant response rating, Wild oats: scale of 0 to 10 where 0 is no effect and 10 is complete control
Summary of the method: as §2

purple nutsedge = assay: Test B pre/postemergence purple nutsedge; format: in vivo, Cyperus rotundus; conditions: for Plant response rating, Nutsedge: scale of 0 to 10 where 0 is no effect and 10 is complete control
Summary of the method: as §2

[1] = Rate 62 g/ha, flood test species, Pre-emergence, visual evaluation after twelve to sixteen days
[2] = Rate 125 g/ha, under heading Pre-emergence, flood test species, visual evaluation after twelve to sixteen days
[3] = Rate 250 g/ha, Pre-emergence (flood test species), scale 0 to 10, 0 is no effect, 10 is complete control
[4] = Rate 500 g/ha, Pre-emergence, flood test species, scale 0 to 10 (0 no effect, 10 complete control)
[5] = Postemergence, Rate 250 g/ha, scale 0 to 10
[6] = Postemergence, Rate 500 g/ha, scale of 0 to 10 where 0 is no effect and 10 is complete control
[7] = Preemergence, Rate 62 g/ha, scale of 0 to 10 where 0 is no effect and 10 is complete control
[8] = Preemergence, Rate 250 g/ha, scale 0 to 10, 0 is no effect, 10 is complete control
[9] = Preemergence, Rate 500 g/ha, scale 0 to 10, 0 is no effect, 10 is complete control
[10] = Rate 62 g/ha, Postemergence, scale 0 to 10 (0 no effect, 10 complete control)
[11] = Rate 125 g/ha, Postemergence, scale 0 to 10, 0 is no effect, 10 is complete control
[12] = Preemergence, Rate 125 g/ha, scale of 0 to 10 where 0 is no effect and 10 is complete control

SMILES: COC(OC)C(C)n1c(=O)on(C(=O)N(c2ccc(F)cc2)C(C)C)c1=O (stereo not shown) [Compound 471]
- Plant response rating, Barnyardgrass (0 to 10 scale, 0 is no effect, 10 is complete control) (bamyardgrass; [1]): 0
- Barnyardgrass plant response rating (0 to 10 scale, 0 is no effect, 10 is complete control) (bamyardgrass; [2]): 0
- Barnyardgrass plant response rating (bamyardgrass; [3]): 0
- Barnyardgrass plant response rating (bamyardgrass; [4]): 0
- Plant response rating, S. Flatsedge (0 to 10 scale, 0 is no effect, 10 is complete control) (smallflower flatsedge; [1]): 0
- S. Flatsedge plant response rating (0 to 10 scale, 0 is no effect, 10 is complete control) (smallflower flatsedge; [2]): 0
- S. Flatsedge plant response rating (smallflower flatsedge; [3]): 0
- S. Flatsedge plant response rating (smallflower flatsedge; [4]): 0
- Cocklebur plant response rating (cocklebur; [5]): 0
- Cocklebur plant response rating (cocklebur; [6]): 0
- Plant response rating, Cocklebur (cocklebur; [7]): 0
- Cocklebur plant response rating (cocklebur; [8]): 0
- Cocklebur plant response rating (cocklebur; [9]): 0
- Cocklebur plant response rating (cocklebur; [10]): 0
- Cocklebur plant response rating (cocklebur; [11]): 0
- Velvetleaf plant response rating (velvetleaf; [5]): 2
- Plant response rating, Velvetleaf (velvetleaf; Preemergence, Rate 62 g/ha): 2
- Plant response rating, Velvetleaf (velvetleaf; Preemergence, Rate 125 g/ha): 3
- Velvetleaf plant response rating (velvetleaf; [8]): 3
- Velvetleaf plant response rating (velvetleaf; [9]): 6
- Velvetleaf plant response rating (velvetleaf; [10]): 0
- Velvetleaf plant response rating (velvetleaf; [11]): 2
- Corn plant response rating (corn; [5]): 0
- Corn plant response rating (corn; [6]): 0
- Plant response rating, Corn (corn; [7]): 0
- Plant response rating, Corn (corn; [12]): 0
- Corn plant response rating (corn; [8]): 2
- Corn plant response rating (corn; [9]): 3
- Corn plant response rating (corn; [10]): 0
- Corn plant response rating (corn; [11]): 0
- Wheat plant response rating (wheat; [5]): 0
- Plant response rating, Wheat (wheat; Preemergence, Rate 62 g/ha): 0
- Plant response rating, Wheat (wheat; Preemergence, Rate 125 g/ha): 0
- Wheat plant response rating (wheat; [8]): 0
- Wheat plant response rating (wheat; [9]): 0
- Wheat plant response rating (wheat; [10]): 0
- Wheat plant response rating (wheat; [11]): 0
- Blackgrass plant response rating (blackgrass; [5]): 3
- Blackgrass plant response rating (blackgrass; [6]): 7
- Plant response rating, Blackgrass (blackgrass; [7]): 9
- Plant response rating, Blackgrass (blackgrass; [12]): 10
- Blackgrass plant response rating (blackgrass; [8]): 10
- Blackgrass plant response rating (blackgrass; [9]): 10
- Blackgrass plant response rating (blackgrass; [10]): 0
- Blackgrass plant response rating (blackgrass; [11]): 2
- Soybean plant response rating (soybean; [5]): 3
- Plant response rating, Soybean (soybean; Preemergence, Rate 62 g/ha): 0
- Plant response rating, Soybean (soybean; Preemergence, Rate 125 g/ha): 0
- Soybean plant response rating (soybean; [8]): 0
- Soybean plant response rating (soybean; [9]): 0
- Soybean plant response rating (soybean; [10]): 2
- Soybean plant response rating (soybean; [11]): 2
- Plant response rating, Ducksalad (0 to 10 scale, 0 is no effect, 10 is complete control) (duck salad; [1]): 0
- Ducksalad plant response rating (0 to 10 scale, 0 is no effect, 10 is complete control) (duck salad; [2]): 0
- Ducksalad plant response rating (duck salad; [3]): 0
- Ducksalad plant response rating (duck salad; [4]): 0
- Crabgrass plant response rating (crabgrass; [5]): 8
- Crabgrass plant response rating (crabgrass; [6]): 9
- Plant response rating, Crabgrass (crabgrass; [7]): 9
- Plant response rating, Crabgrass (crabgrass; [12]): 10
- Crabgrass plant response rating (crabgrass; [8]): 10
- Crabgrass plant response rating (crabgrass; [9]): 10
- Crabgrass plant response rating (crabgrass; [10]): 1
- Crabgrass plant response rating (crabgrass; [11]): 3
- Sugarbeets plant response rating (sugar beet; [5]): 0
- Plant response rating, Sugarbeets (sugar beet; Preemergence, Rate 62 g/ha): 0
- Plant response rating, Sugarbeets (sugar beet; Preemergence, Rate 125 g/ha): 2
- Sugarbeets plant response rating (sugar beet; [8]): 2
- Sugarbeets plant response rating (sugar beet; [9]): 4
- Sugarbeets plant response rating (sugar beet; [10]): 0
- Sugarbeets plant response rating (sugar beet; [11]): 0
- B. signalgrass plant response rating (surinam grass; Postemergence, Rate 250 g/ha, scale 0 to 10, 0 no effect, 10 complete control): 4
- B. signalgrass plant response rating (surinam grass; [6]): 6
- Plant response rating, B. signalgrass (surinam grass; [7]): 6
- Plant response rating, B. signalgrass (surinam grass; [12]): 9
- B. signalgrass plant response rating (surinam grass; [8]): 10
- B. signalgrass plant response rating (surinam grass; [9]): 10
- B. signalgrass plant response rating (surinam grass; [10]): 0
- B. signalgrass plant response rating (surinam grass; [11]): 0
- Plant response rating, Rice (0 to 10 scale, 0 is no effect, 10 is complete control) (rice; [1]): 0
- Rice plant response rating (0 to 10 scale, 0 is no effect, 10 is complete control) (rice; [2]): 0
- Rice plant response rating (rice; [3]): 0
- Rice plant response rating (rice; [4]): 0
- Wild oats plant response rating (wild oat; [5]): 0
- Plant response rating, Wild oats (wild oat; Preemergence, Rate 62 g/ha): 2
- Plant response rating, Wild oats (wild oat; Preemergence, Rate 125 g/ha): 4
- Wild oats plant response rating (wild oat; [8]): 7
- Wild oats plant response rating (wild oat; [9]): 7
- Wild oats plant response rating (wild oat; [10]): 0
- Wild oats plant response rating (wild oat; [11]): 0
- Nutsedge plant response rating (purple nutsedge; [5]): 0
- Plant response rating, Nutsedge (purple nutsedge; Preemergence, Rate 62 g/ha): 0
- Plant response rating, Nutsedge (purple nutsedge; Preemergence, Rate 125 g/ha): 0
- Nutsedge plant response rating (purple nutsedge; [8]): 0
- Nutsedge plant response rating (purple nutsedge; [9]): 0
- Nutsedge plant response rating (purple nutsedge; [10]): 0
- Nutsedge plant response rating (purple nutsedge; [11]): 0
